Experimental data taken from BigSolDB 2.1.

C=CC(=O)NC(C)(C)CC(C)=O
Settings	solubility (mole fraction)
in 2-butanone, 272.05 K	0.229
in 2-butanone, 278.25 K	0.276
in 2-butanone, 283.25 K	0.321
in 2-butanone, 288.45 K	0.373
in 2-butanone, 293.35 K	0.424
in 2-butanone, 298.15 K	0.484
in 2-butanone, 303.25 K	0.551
in 2-butanone, 308.15 K	0.623
in 2-butanone, 313.15 K	0.704
in 2-butanone, 318.15 K	0.79
in 2-butanone, 323.15 K	0.88
in 2-pentanone, 272.05 K	0.2
in 2-pentanone, 278.25 K	0.245
in 2-pentanone, 283.25 K	0.285
in 2-pentanone, 288.45 K	0.334
in 2-pentanone, 293.35 K	0.385
in 2-pentanone, 298.15 K	0.442
in 2-pentanone, 303.25 K	0.509
in 2-pentanone, 308.15 K	0.581
in 2-pentanone, 313.15 K	0.658
in 2-pentanone, 318.15 K	0.747
in 2-pentanone, 323.15 K	0.844
in acetone, 272.05 K	0.207
in acetone, 278.25 K	0.252
in acetone, 283.25 K	0.294
in acetone, 288.45 K	0.342
in acetone, 293.35 K	0.394
in acetone, 298.15 K	0.45
in acetone, 303.25 K	0.515
in acetone, 308.15 K	0.584
in acetone, 313.15 K	0.66
in acetone, 318.15 K	0.746
in acetone, 323.15 K	0.839
in ethanol, 272.15 K	0.186
in ethanol, 278.25 K	0.231
in ethanol, 283.15 K	0.271
in ethanol, 288.15 K	0.318
in ethanol, 293.35 K	0.374
in ethanol, 297.65 K	0.427
in ethanol, 303.15 K	0.5
in ethanol, 308.15 K	0.576
in ethanol, 313.65 K	0.671
in ethanol, 318.85 K	0.767
in ethanol, 323.65 K	0.867
in ethyl acetate, 272.05 K	0.166
in ethyl acetate, 278.25 K	0.208
in ethyl acetate, 283.25 K	0.249
in ethyl acetate, 288.45 K	0.299
in ethyl acetate, 293.35 K	0.351
in ethyl acetate, 298.15 K	0.411
in ethyl acetate, 303.25 K	0.481
in ethyl acetate, 308.15 K	0.558
in ethyl acetate, 313.15 K	0.645
in ethyl acetate, 318.15 K	0.745
in ethyl acetate, 323.15 K	0.85
in ethyl formate, 272.05 K	0.186
in ethyl formate, 278.25 K	0.23
in ethyl formate, 283.25 K	0.271
in ethyl formate, 288.45 K	0.321
in ethyl formate, 293.35 K	0.376
in ethyl formate, 298.15 K	0.435
in ethyl formate, 303.25 K	0.506
in ethyl formate, 308.15 K	0.575
in ethyl formate, 313.15 K	0.659
in ethyl formate, 318.15 K	0.754
in ethyl formate, 323.15 K	0.859
in isobutanol, 272.05 K	0.212
in isobutanol, 278.25 K	0.258
in isobutanol, 283.25 K	0.301
in isobutanol, 288.45 K	0.351
in isobutanol, 293.35 K	0.403
in isobutanol, 298.15 K	0.462
in isobutanol, 303.25 K	0.529
in isobutanol, 308.15 K	0.601
in isobutanol, 313.15 K	0.68
in isobutanol, 318.15 K	0.767
in isobutanol, 323.15 K	0.866
in isopentanol, 272.15 K	0.154
in isopentanol, 278.25 K	0.197
in isopentanol, 283.15 K	0.24
in isopentanol, 288.15 K	0.29
in isopentanol, 293.35 K	0.352
in isopentanol, 297.65 K	0.411
in isopentanol, 303.15 K	0.495
in isopentanol, 308.15 K	0.585
in isopentanol, 313.65 K	0.7
in isopentanol, 318.85 K	0.82
in isopentanol, 323.65 K	0.955
in isopropanol, 272.15 K	0.155
in isopropanol, 278.25 K	0.197
in isopropanol, 283.15 K	0.238
in isopropanol, 288.15 K	0.286
in isopropanol, 293.35 K	0.343
in isopropanol, 297.65 K	0.398
in isopropanol, 303.15 K	0.479
in isopropanol, 308.15 K	0.562
in isopropanol, 313.65 K	0.667
in isopropanol, 318.85 K	0.777
in isopropanol, 323.65 K	0.898
in methanol, 272.15 K	0.241
in methanol, 278.25 K	0.287
in methanol, 283.15 K	0.327
in methanol, 288.15 K	0.371
in methanol, 293.35 K	0.422
in methanol, 297.65 K	0.468
in methanol, 303.15 K	0.531
in methanol, 308.15 K	0.594
in methanol, 313.65 K	0.667
in methanol, 318.85 K	0.746
in methanol, 323.65 K	0.823
in methyl acetate, 272.05 K	0.206
in methyl acetate, 278.25 K	0.253
in methyl acetate, 283.25 K	0.294
in methyl acetate, 288.45 K	0.343
in methyl acetate, 293.35 K	0.399
in methyl acetate, 298.15 K	0.455
in methyl acetate, 303.25 K	0.526
in methyl acetate, 308.15 K	0.6
in methyl acetate, 313.15 K	0.68
in methyl acetate, 318.15 K	0.769
in methyl acetate, 323.15 K	0.869
in n-butanol, 272.15 K	0.169
in n-butanol, 278.25 K	0.213
in n-butanol, 283.15 K	0.253
in n-butanol, 288.15 K	0.303
in n-butanol, 293.35 K	0.362
in n-butanol, 297.65 K	0.417
in n-butanol, 303.15 K	0.496
in n-butanol, 308.15 K	0.579
in n-butanol, 313.65 K	0.681
in n-butanol, 318.85 K	0.793
in n-butanol, 323.65 K	0.908
in n-hexanol, 272.15 K	0.151
in n-hexanol, 278.25 K	0.194
in n-hexanol, 283.15 K	0.236
in n-hexanol, 288.15 K	0.286
in n-hexanol, 293.35 K	0.346
in n-hexanol, 297.65 K	0.406
in n-hexanol, 303.15 K	0.491
in n-hexanol, 308.15 K	0.581
in n-hexanol, 313.65 K	0.696
in n-hexanol, 318.85 K	0.82
in n-hexanol, 323.65 K	0.953
in n-pentanol, 272.15 K	0.148
in n-pentanol, 278.25 K	0.189
in n-pentanol, 283.15 K	0.229
in n-pentanol, 288.15 K	0.276
in n-pentanol, 293.35 K	0.336
in n-pentanol, 297.65 K	0.391
in n-pentanol, 303.15 K	0.469
in n-pentanol, 308.15 K	0.553
in n-pentanol, 313.65 K	0.66
in n-pentanol, 318.85 K	0.775
in n-pentanol, 323.65 K	0.896
in n-propanol, 272.15 K	0.18
in n-propanol, 278.25 K	0.226
in n-propanol, 283.15 K	0.269
in n-propanol, 288.15 K	0.32
in n-propanol, 293.35 K	0.381
in n-propanol, 297.65 K	0.437
in n-propanol, 303.15 K	0.52
in n-propanol, 308.15 K	0.605
in n-propanol, 313.65 K	0.71
in n-propanol, 318.85 K	0.819
in n-propanol, 323.65 K	0.937
